Measured values: patent US11304956B2, “Use of 7-bromo-5-(O-chlorophenyl)-3-propoxy-1,2-dihydro-3H-1,4-benzodiazepin-2-one for inhibition of neuropathic pain and seizures of different etiology” (priority 2016, dated 2022)

Columns and labels:
[1] = test system: model of neuropathic pain in rats; experiment: Model of neuropathic pain (sciatic nerve ligation), threshold of pain sensitivity by dolorimeter; type: in vivo, male Wistar rats; conditions: for Changes in the threshold of pain perception, regarding healthy limb: damaged vs healthy limb before administration (baseline); for Threshold of pain sensitivity, damaged limb / Threshold of pain sensitivity, healthy limb: day 14 after ligation, before administration (baseline), M±m, n=10; for Threshold of pain sensitivity 2 hours after compounds administration: damaged limb
Method: An evaluation of the antinociceptive action of the test compound (1) on a model of neuropathic pain was carried out on 50 male Wistar rats weighing 270-310 g. The model of neuropathic pain was reproduced by ligation of the sciatic nerve at the level of the upper third of the thigh at the level of the popliteal fossa higher than the site of its trifurcation by N. tibialis, N. peroneus and N. suralis (see Mironov A. N. et al. Guidelines for conducting preclinical studies of drugs. Part one.—Moscow 2012. p. 197-219). The development of the pathological process lasted 14 days. The degree of hyperalgesia was determined using a dolorimeter (Dolorimeter Baseline, USA) by determining the threshold of pain sensitivity (TPS)—the minimum pressure on the lower surface of the rat's foot (g/mm^2), which caused pain in the animal (vocalization and/or withdrawal of the foot). Each animal was given 5 attempts; the threshold value was taken with such a pressure force, which caused a positive response in at least one attempt. The threshold of pain sensitivity was compared on intact and damaged limbs on day 14 after ligation (pathology without treatment), as well as on the injured limb after 2 hours (peak of action) after the drugs administration. The test compound and the reference drug (ketorolac) were administered intragastrally (as gavage) once at doses of 0.5 and 3 mg/kg. Sciatic nerve ligation in animals caused the development of neuropathic pain syndrome, which manifested itself in behavioral reactions of the rat and lowering the threshold of pain sensitivity by an average of 44-48% (see Table 1). The analgesic effect of Compound 1 compared with ketorolac under the conditions of their intragastral administration on the model of neuropathic pain in rats (M±m, n=10, where n is the number of animals in the experiments) is shown in Table 1.

MES-induced seizures = experiment: Maximal electroshock (MES) seizures; type: in vivo, non-linear male mice; conditions: Mus musculus; mice; corneal electrodes 50 Hz, 50 mA, 0.2 s; interval in brackets; read-out: Anticonvulsive activity (ED50), MES
Excerpt: (§1) In many cases, the presence of anticonvulsant (antiepileptic) effect of the compounds correlates with analgesic properties on corresponding models of neuralgia. As a general step is a primary screening of new anticonvulsant compounds on rodents with the help of pentylenetetrazole test and MES (maximal electroshock seizures) as they have a qualitative difference in development and manifestations of seizures. It is believed that the compound ability to prevent the MES-induced seizures is connected with impulse spread inhibition throughout the central nervous system. It is believed that the ability to prevent the MES-induced seizures development indicates the potential efficacy of the compound in the preventing propagation of a pulse along the neural tissue (see Tompson E. Medicines. Bioscreening/Under the editorship of A. V. Stefanova.-K.: Avitsenna, 1998.—250 p.).
(§2) For MES-induced seizures experimental animals were exposed to electric stimulation through the corneal electrodes (50 Hz, 50 mA for mice during 0.2 s). The number of animals with the maximum tonic extension of the hind limbs, which occurs in almost 100% of the animals in the control group, was calculated. For the statistically significant determination of ED50, 3 doses of the test compound were used; the effect of each dose was studied in 6-8 animals.

gastric mucosa = experiment: Ulcerogenic effect, chronic experiment (28 days intragastric); type: in vivo, rats; conditions: 0.5 mg/kg intragastrally for 28 days, n = 14
Method: Evaluation of ulcerogenic action was carried out on a 4-score scale:
0 score—no damage; 0.5 score—hyperemia (blood vessels overflow)
1 score—single minor lesions (1-3 point hemorrhages or small ulcers)
2 score—multiple (more than 3) lesions (erosions, pinpoint hemorrhages) or 1 large ulcer
3 score—significant and massive damages (erosions, hemorrhages) of the gastric mucosa with significant size (diameter up to 4 mm)
4 score—gross injuries (massive hemorrhages, erosions, perforations) that cover the entire surface of the gastric mucosa.
The average multiplicity index of damage to the gastric mucosa (the number of ulcers per animal) and the severity of the damage (in scores) were determined.
To determine the safety of this compound in a chronic trial during long-term administration, it was administered to rats for 28 days at a dose close to ED50 by analgesic effect (0.5 mg/kg).
The data presented indicate that there is no serious damage to the stomach from the test compound, even when administered at very high doses, several orders higher than the average effective doses, and which are close to the upper limit of permitted doses that can be administered to rats once. Therefore, at the next stage it became reasonable to determine the effect of Compound 1 on the stomach after prolonged use (28 days) in an average effective dose of 0.5 mg/kg.

[2] = test system: pentylenetetrazole-induced convulsions; experiment: Pentylenetetrazole-induced seizures; type: in vivo, non-linear male mice; conditions: Mus musculus, sc; mice; pentylenetetrazole 120 mg/kg subcutaneously; interval (0.83-0.97) printed on the next line; read-out: Anticonvulsive activity (ED50), Pentylenetetrazole
Excerpt: as §1
The experiments were performed on non-linear male mice weighing 19-29 g. Pentylenetetrazole was administered subcutaneously in the cervical region of the back. […]
as §2, with “For the statistically significant determination of ED50, 3 doses of the test compound were used; the effect of each dose was studied in 6-8 animals.” left out

formalin test in mice = experiment: Formalin test (licking time of the injected paw); type: in vivo, white male non-linear mice; conditions: for I phase, % effect (decrease in the time of licking of the paw): phase 0-5 min; for II phase, effect (decrease in the time of licking of the paw): phase 15-40 min
[3] = 0.01 mg/kg intraperitoneally 40 min before formalin
[4] = 0.10 mg/kg intraperitoneally 40 min before formalin
[5] = 3.00 mg/kg intraperitoneally 40 min before formalin

`CCCOC1N=C(c2ccccc2Cl)c2cc(Br)ccc2NC1=O` (stereo not shown) [Compound 1, 7-bromo-5-(o-chlorophenyl)-3-propoxy-1,2-dihydro-3H-1,4-benzodiazepin-2-one] was tested, and the “Changes in the threshold of pain perception, regarding healthy limb” value ([1]; 0.5 mg/kg group) was −48.4 ± 4.6%, the “Threshold of pain sensitivity, damaged limb” value ([1]; 0.5 mg/kg group) was 223.5 ± 20.1 g/mm^2 and the “Threshold of pain sensitivity, healthy limb” value ([1]; 0.5 mg/kg group) was 434.3 ± 13.4 g/mm^2. The “Threshold of pain sensitivity 2 hours after compounds administration” value ([1]; 0.5 mg/kg intragastrally once) was 269.3 ± 19.4 g/mm^2, the “Changes in the threshold of pain perception, regarding healthy limb” value ([1]; 3 mg/kg group) was −44.3 ± 2.9% and the “Threshold of pain sensitivity, damaged limb” value ([1]; 3 mg/kg group) was 295.7 ± 29.9 g/mm^2. The “Threshold of pain sensitivity, healthy limb” value ([1]; 3 mg/kg group) was 523.6 ± 28.1 g/mm^2, the “Threshold of pain sensitivity 2 hours after compounds administration” value ([1]; 3 mg/kg intragastrally once) was 532.8 ± 47.1 g/mm^2 and the ED50 (MES-induced seizures) was 8.2 mg/kg. The “Number of animals with different degrees lesions of the gastric mucosa, score 1” value (gastric mucosa) was 4, the “Number of animals with different degrees lesions of the gastric mucosa, score 3” value (gastric mucosa) was 0 and the “Number of animals with different degrees lesions of the gastric mucosa, score 4” value (gastric mucosa) was 0. The “The multiplicity of damage” value (gastric mucosa) was 0.5±0.23, the Average score (gastric mucosa; 4-score scale) was 0.4±0.17 and the ED50 [2] was 0.91 mg/kg. For the same compound, the “I phase, % effect (decrease in the time of licking of the paw)” value (formalin test in mice; [3]) was 15.00 ± 4.11%, the “II phase, effect (decrease in the time of licking of the paw)” value (formalin test in mice; [3]) was 32.10 ± 10.10 and the “I phase, % effect (decrease in the time of licking of the paw)” value (formalin test in mice; [4]) was 76.00 ± 6.50 %. For the same compound, the “II phase, effect (decrease in the time of licking of the paw)” value (formalin test in mice; [4]) was 54.00 ± 8.60, the “I phase, % effect (decrease in the time of licking of the paw)” value (formalin test in mice; [5]) was 91.10 ± 18.80 % and the “II phase, effect (decrease in the time of licking of the paw)” value (formalin test in mice; [5]) was 98.4 ± 15.0. The “Activity in the first phase relative to diclofenac sodium” value (formalin test in mice; Compound 1 at 0.1 mg/kg vs diclofenac sodium at 10 mg/kg, first phase) was 1.5 times.
